# Experimental data from article PMC3404088, “Development of a Small D-Enantiomeric Alzheimer’s Amyloid-β Binding Peptide Ligand for Future In Vivo Imaging Applications” (PLoS ONE, 2012).
# Square brackets hold non-standard residues; d marks the D form. Peptide text beside a SMILES is read from it. * marks the point of attachment. 5FAM = O=C1OC2(c3ccc(O)cc3Oc3cc(O)ccc32)c2ccc(C(=O)*)cc21
# Experiments:
# Aβ1–42 fibrils = target: T1, Aβ1–42 fibrils (Homo sapiens, UniProt P05067); experiment: SPR single cycle experiments (Biacore T100), heterogeneous ligand model; format: binding; parameters: Rmax1 / Rmax2 / k off2: unit not given here; settings: for Rmax2 / k off1 / k off2 / k on1 / k on2 / Rmax1: PBS pH 7.4, 25°C, 30 µl/min; for Rmax1: global fit of three lowest responding concentrations
# T1 construct: Aβ1–42 was dissolved in hexafluoroisopropanol (HFIP)
# Experimental: Aβ1–42 fibrils were prepared as described above. Thereafter, the sample was centrifuged for 10 min at 16000×g, the supernatant discarded and this procedure repeated for 3 times. Formation of fibrils was confirmed by a standard Thioflavin-T fluorescence assay. Aβ1–42 fibrils were covalently immobilized on a CM5 sensor chip via amine coupling. Prior to immobilization of Aβ1–42 fibrils the sample was centrifuged and fibrils resuspended in 10 mM sodium acetate buffer pH 4.0. Flow cell sensor surfaces were activated with a freshly prepared solution of 0.2 M 1-ethyl–3-(3-dimethylaminopropyl)-carbodiimide (EDC) and 0.05 M N-hydroxysuccinimide (NHS) at a constant flow rate of 10 µl/min for 420 s. Aβ1–42 fibrils (∼ 110 µM monomeric Aβ1–42) were injected for 600 s with a flow rate of 10 µl/min. Deactivation of the surface was performed by injection of 1 M ethanolamine-HCl pH 8.5 at the same flow rate and duration as in the activation step. In the reference cells the deactivation step was performed directly after the activation step. All SPR experiments were performed on a Biacore T100 system with series S CM5 sensor chips at 25°C. The system was run with the Biacore T100 Control Software Version 1.1.1. PBS (10 mM sodium phosphate buffer pH 7.4, 137 mM NaCl, 2.7 mM KCl) was chosen as running buffer (as previously during fibril formation) in order to minimize alterations of fibril organization. All buffers were sterile filtered (0.22 µm). After each docking of a sensor chip the detector was normalized with BIAnormalizing solution (70% glycerol, GE Healthcare) to compensate for slight differences in detector responses of individual sensor chips. For all interaction analyses the Type 1 reagent rack was used. Siliconized sample vials were used with their corresponding rubber caps (Type 2, GE Healthcare) to minimize evaporation effects. Throughout all runs the flow rate was set to 30 µl/min. All interaction studies were performed in single-cycle mode. Here, five different concentrations of analyte were passed through a reference cell and subsequently through flow cells with immobilized ligand within the same binding cycle for 60 seconds, starting with the lowest concentration. Successive injections were performed in the order of increasing concentrations. Each following concentration was a fivefold increase of the previous. The lowest analyte concentration was chosen to be 100 nM and therefore the following were 500, 2500, 12500 and 62500 nM. Biacore data were evaluated using BiaEvaluation 4.1.1 (GE Healthcare) and Biacore T100 Evaluation Software (GE Healthcare). Obtained binding data with compounds were double referenced. This was achieved by collecting the data in dual-channel mode with a reference flow cell connected upstream of the flow cell with immobilized Aβ1–42 fibrils and the subtraction of the obtained binding responses with a blank buffer injection (PBS).
# Aβ1–42 monomers = target: T2, Aβ1–42 monomers (Homo sapiens, UniProt P05067); experiment: ELISA, compound binding to Aβ1–42 peptide film (predominantly monomers); settings: 10 µg/ml compound; optical density after pNPP incubation; value of one single experiment only
# T2 construct: Aβ1–42 peptide film was prepared from lyophilized powder (Bachem); purchased Bachem
# Experimental: Aβ1–42 peptide film was prepared from lyophilized powder (Bachem). The powder was reconstituted in HFIP to a final concentration of 1 mM, sonicated for 15 min at room temperature (RT), agitated overnight (ON), and aliquoted into non-siliconized microcentrifuge tubes (12 µl corresponding to 55 µg). The HFIP was evaporated under a stream of argon. The resulting peptide film was vacuum dried for 10 min and stored at -80°C. For direct use as peptide film, an aliquot of Aβ1–42 peptide film was reconstituted with 0.54% dimethylsulphoxide (DMSO) in phosphate buffered saline (PBS) to obtain a final concentration of 10 µg/ml and then used for the ELISA as described below. To prepare fibrils, 55 µg aliquot of peptide film was dissolved in 55 µl of 50 mM Tris-HCl, pH 7.4 and incubated at 37°C for five days. Next, the sample was centrifuged (10’000 rpm for 5 min) and the pellet was diluted in 50 mM Tris-HCl, pH 7.4.
# Aβ1–42 peptide preparations were diluted in 0.05 M bicarbonate-carbonate buffer pH 9.6, to the final concentration of 10 µg/ml and coated onto ELISA plates (MaxiSorp, Nunc). After blocking (PBS; 0.05% Tween; 1% BSA), plates were incubated with 2- or 3-fold dilutions of D-compounds (starting concentration: 10 µg/ml) and incubated for 2 h at 37°C. Plates were then washed and incubated for 2 h at 37°C with the detection antibody Rabbit-a-fluorescein isothiocyanate-AP (Sigma; 1∶10’000 dilution) followed by the incubation for 2.5 h at room temperature (RT) with 1 mg/ml of phosphatase substrate (pNPP, Sigma). The absorbance signal was read at 405 nm wavelength using a Tecan plate reader (Tecan Group Lt, Männedorf, Switzerland).
# ELISA plates (MaxiSorp, Nunc) were coated with anti-Aβ antibody 6E10 (Covance) at a concentration of 5 µg/ml. Either monomeric Aβ1–42 peptide film (mainly monomeric) or Aβ1–42 fibrils, which were prepared as described above, were diluted in PBS to the final concentration 10 µg/ml and mixed with 10-fold dilutions of D-peptide compounds in Eppendorf tubes (starting concentration of D-peptide compounds: 10 µg/ml). The tubes were incubated for 2 h at 37°C. Next, samples were distributed onto the ELISA plate and kept for 2 h at 37°C. Plates were washed and incubated for 2 h at 37°C with the detection antibody Rabbit-a-fluorescein isothiocyanate-AP (Sigma; 1∶10′000 dilution) following the incubation overnight (ON) at RT with 1 mg/ml of phosphatase substrate (pNPP, Sigma). The absorbance signal was read at 405 nm wavelength using the Tecan plate reader (Tecan Group Ltd, Männedorf, Switzerland).
# To verify the SPR results, ELISA was employed to assay the interaction of the ACI-80 derivatives ACI-80-Kϕ, ACI-81-Kϕ, ACI-82-Kϕ, ACI-83-Kϕ, ACI-84-Kϕ, ACI-85-Kϕ, ACI-86-Kϕ, ACI-87-Kϕ, [^19F]-ACI-87-Kϕ, ACI-88-Kϕ, [^19F]-ACI-88-Kϕ, ACI-89-Kϕ, [^19F]-ACI-89-Kϕ) with Aβ1–42 fibrils and Aβ peptide film in solution containing mostly monomers and smaller oligomers (Table 4). To avoid any bias by possible conformational influences the ELISA has been carried out in two versions, once with immobilized antibody and once with immobilized Aβ1–42 as described in the methods section. Both assays yielded similar results and confirmed each other. […] Panels A and B in Figure 2 show the results for binding to Aβ1–42 fibrils and panels C and D in Figure 2 show the results for binding to freshly prepared Aβ1–42 peptide film, which contains mostly monomeric Aβ. In Table 4, the performance of the peptides is expressed relative to that of ACI-80-Kϕ.
# T2 sequence (P05067 672-713 limits assumed): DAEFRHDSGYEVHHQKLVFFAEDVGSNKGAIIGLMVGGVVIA
# T1 sequence (P05067 672-713 limits assumed): as above
Rmax2 (Aβ1–42 fibrils),k off1 (Aβ1–42 fibrils),k off2 (Aβ1–42 fibrils),k on1 (Aβ1–42 fibrils),k on2 (Aβ1–42 fibrils),Rmax1 (Aβ1–42 fibrils),"binding value, binding Aβ1–42 monomers (Aβ1–42 monomers)","dissociation constant (lowest K D of the two, words) (Aβ1–42 fibrils)",Structure (SMILES)
36.2,1.84e-3,0.0407,206,1.57e3,43.3,*0.79,–,CC[C@@H](C)[C@@H](NC(=O)[C@@H](Cc1c[nH]cn1)NC(=O)[C@@H](CCCNC(=N)N)NC(=O)[C@@H](Cc1ccc(O)cc1)NC(=O)[C@@H](Cc1c[nH]cn1)NC(=O)[C@@H](CO)NC(=O)[C@H](N)CCC(N)=O)C(=O)N[C@H](CO)C(=O)N1CCC[C@@H]1C(=O)N[C@H](C)C(=O)N[C@H](CCC(N)=O)C(=O)N[C@H](CCCCN)C(=O)N[C@H](CCCCNC(=O)c1ccc2c(c1)C(=O)OC21c2ccc(O)cc2Oc2cc(O)ccc21)C(=O)O [ACI-87-Kϕ] (H-[dQ][dS][dH][dY][dR][dH][dI][dS][dP][dA][dQ][dK][dK](5FAM)-OH; N-terminus and C-terminus assumed)
63.3,7.22e-3,0.0553,1.71e4,930,9.96,*1.29,submicromolar range,CC[C@@H](C)[C@@H](NC(=O)[C@@H](Cc1c[nH]cn1)NC(=O)[C@@H](CCCNC(=N)N)NC(=O)[C@@H](Cc1ccc(O)cc1)NC(=O)[C@@H](Cc1c[nH]cn1)NC(=O)[C@H](N)CO)C(=O)N[C@H](CO)C(=O)N1CCC[C@@H]1C(=O)N[C@H](C)C(=O)N[C@H](CCC(N)=O)C(=O)N[C@H](CCCCN)C(=O)N[C@H](CCCCNC(=O)c1ccc2c(c1)C(=O)OC21c2ccc(O)cc2Oc2cc(O)ccc21)C(=O)O [ACI-88-Kϕ] (H-[dS][dH][dY][dR][dH][dI][dS][dP][dA][dQ][dK][dK](5FAM)-OH; N-terminus and C-terminus assumed)
19.4,0.162,0.0118,2.03e4,3.34e3,21.8,*1.06,–,CC[C@@H](C)[C@@H](NC(=O)[C@@H](Cc1c[nH]cn1)NC(=O)[C@@H](CCCNC(=N)N)NC(=O)[C@@H](Cc1ccc(O)cc1)NC(=O)[C@@H](Cc1c[nH]cn1)NC(=O)[C@@H](CO)NC(=O)[C@H]1CCCN1)C(=O)N[C@H](CO)C(=O)N1CCC[C@@H]1C(=O)N[C@H](C)C(=O)N[C@H](CCC(N)=O)C(=O)N[C@H](CCCCN)C(=O)N[C@H](CCCCNC(=O)c1ccc2c(c1)C(=O)OC21c2ccc(O)cc2Oc2cc(O)ccc21)C(=O)O [ACI-89-Kϕ] (H-[dP][dS][dH][dY][dR][dH][dI][dS][dP][dA][dQ][dK][dK](5FAM)-OH; N-terminus and C-terminus assumed)
